In patent US9708314B2, “Heterocyclic amide compound” (NISSAN CHEMICAL INDUSTRIES, LTD., priority 2013, dated 2017):

How the values were obtained:
Format in all cases: in vivo
[1] = tested on: transplanted Oryza sativa; test: Test Example 1: effect on crop, application before weed generation in submerged conditions; details: Application herbicide amount 320 g/ha; Seventeenth Table
Procedure, shortened: (§1)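 Rating, on a six-step scale from almost no effect (0) to almost completely withered (5), was made three weeks after pre-emergence treatment. Treatment was surface application to flooded pots at g/ha rates, with plants kept at 25° C. to 30° C.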

[2] = tested on: Beta vulgaris ssp. vulgaris; test: Test Example 4: effect on crop by application to foliage (diluvial soil, plastic box); details: foliage application, 320 g/ha
Procedure, shortened: (§2)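 Emulsion-formulated compound, diluted to a predetermined g/ha dose, applied by small sprayer to leaves and stems of 14-day-old seedlings grown in sterilized diluvial soil. Effect rated on 0–5 herbicidal-ratio scale three weeks on.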

Zea mays = test: as above; details: foliage application, 320 g/ha
Procedure, shortened: as §2

Glycine max = test: as above; details: foliage application, 320 g/ha
Procedure, shortened: as §2

Brassica campestris L. = test: as above; details: foliage application, 320 g/ha
Procedure, shortened: as §2

Triticum aestivum = test: as above; details: foliage application, 320 g/ha
Procedure, shortened: as §2

[3] = tested on: directly sowed Oryza sativa; test: as above; details: foliage application, 320 g/ha
Procedure, shortened: as §2

Scirpus juncoides = test: Test Example 1: herbicidal activity, application before weed generation in submerged conditions; details: Application herbicide amount 320 g/ha; Seventeenth Table
Procedure, shortened: as §1

[4] = tested on: Echinochloa oryzacola Vasing.; test: as above; details: Application herbicide amount 320 g/ha; Seventeenth Table
Procedure, shortened: as §1

Monochoria vaginalis = test: as above; details: Application herbicide amount 320 g/ha; Seventeenth Table
Procedure, shortened: as §1

Alopecurus myosuroides = test: Test Example 4: herbicidal effect by application to foliage (diluvial soil, plastic box); details: foliage application, 320 g/ha
Procedure, shortened: as §2

Setaria viridis = test: as above; details: foliage application, 320 g/ha
Procedure, shortened: as §2

[5] = tested on: Echinochloa crus-galli var. crus-galli; test: as above; details: foliage application, 320 g/ha
Procedure, shortened: as §2

Chenopodium album = test: as above; details: foliage application, 320 g/ha
Procedure, shortened: as §2

Veronica persica = test: as above; details: foliage application, 320 g/ha
Procedure, shortened: as §2

Digitaria ciliaris = test: as above; details: foliage application, 320 g/ha
Procedure, shortened: as §2

Lolium multiflorum Lam. = test: as above; details: foliage application, 320 g/ha
Procedure, shortened: as §2

Avena fatua = test: as above; details: foliage application, 320 g/ha
Procedure, shortened: as §2

Galium spurium = test: as above; details: foliage application, 320 g/ha
Procedure, shortened: as §2

Stellaria media = test: as above; details: foliage application, 320 g/ha
Procedure, shortened: as §2

Apera spica-venti. = test: as above; details: foliage application, 320 g/ha
Procedure, shortened: as §2

Amaranthus retroflexus = test: as above; details: foliage application, 320 g/ha
Procedure, shortened: as §2

Abutilon theophrasti = test: as above; details: foliage application, 320 g/ha
Procedure, shortened: as §2

| SMILES | a: transplanted Oryza sativa (effect on crop grade) [1] | f (Beta vulgaris ssp. vulgaris) effect on crop grade [2] | b (Zea mays) effect on crop grade (Zea mays) | c (Glycine max) effect on crop grade (Glycine max) | g (Brassica campestris L.) effect on crop grade (Brassica campestris L.) | e (Triticum aestivum) effect on crop grade (Triticum aestivum) | d (directly sowed Oryza sativa) effect on crop grade [3] | B: Scirpus juncoides (herbicidal effect grade) (Scirpus juncoides) | A: Echinochloa oryzicola Vasing. (herbicidal effect grade) [4] | C: Monochoria vaginalis (herbicidal effect grade) (Monochoria vaginalis) | J (Alopecurus myosuroides) herbicidal effect grade (Alopecurus myosuroides) | G (Setaria viridis) herbicidal effect grade (Setaria viridis) | H (Echinochloa crus-galli var. crus-galli) herbicidal effect grade [5] | O (Chenopodium album) herbicidal effect grade (Chenopodium album) | R (Veronica persica) herbicidal effect grade (Veronica persica) | F (Digitaria ciliaris) herbicidal effect grade (Digitaria ciliaris) | K (Lolium multiflorum Lam.) herbicidal effect grade (Lolium multiflorum Lam.) | I (Avena fatua) herbicidal effect grade (Avena fatua) | Q (Galium spurium) herbicidal effect grade (Galium spurium) | P (Stellaria media) herbicidal effect grade (Stellaria media) | also measured |
| --- | --- | --- | --- | --- | --- | --- | --- | --- | --- | --- | --- | --- | --- | --- | --- | --- | --- | --- | --- | --- | --- |
| Cn1nnnc1NC(=O)c1ccc(C(F)(F)F)n2c(CSCC(F)(F)F)nnc12 [2-030] | 3 (Herbicidal ratio of 40% or more and less than 70%) | 5 (Herbicidal ratio of 90% or more (almost completely withered)) | 5 (Herbicidal ratio of 90% or more (almost completely withered)) | 0 (Herbicidal ratio of 5% or less (almost no effect)) | 5 (Herbicidal ratio of 90% or more (almost completely withered)) | 3 (Herbicidal ratio of 40% or more and less than 70%) | 4 (Herbicidal ratio of 70% or more and less than 90%) | 4 (Herbicidal ratio of 70% or more and less than 90%) | 5 (Herbicidal ratio of 90% or more (almost completely withered)) | 4 (Herbicidal ratio of 70% or more and less than 90%) | 3 (Herbicidal ratio of 40% or more and less than 70%) | 5 (Herbicidal ratio of 90% or more (almost completely withered)) | 5 (Herbicidal ratio of 90% or more (almost completely withered)) | 5 (Herbicidal ratio of 90% or more (almost completely withered)) | 5 (Herbicidal ratio of 90% or more (almost completely withered)) | 5 (Herbicidal ratio of 90% or more (almost completely withered)) | 3 (Herbicidal ratio of 40% or more and less than 70%) | 4 (Herbicidal ratio of 70% or more and less than 90%) | 3 (Herbicidal ratio of 40% or more and less than 70%) | 5 (Herbicidal ratio of 90% or more (almost completely withered)) | L (Apera spica-venti.) herbicidal effect grade (Apera spica-venti.): 5 (Herbicidal ratio of 90% or more (almost completely withered)); N (Amaranthus retroflexus) herbicidal effect grade (Amaranthus retroflexus): 5 (Herbicidal ratio of 90% or more (almost completely withered)); M (Abutilon theophrasti) herbicidal effect grade (Abutilon theophrasti): 5 (Herbicidal ratio of 90% or more (almost completely withered)) |
| CC[S+]([O-])c1nnc2c(C(=O)Nc3nnnn3C)ccc(C(F)(F)F)n12 (stereo not drawn) [2-031] | 5 (Herbicidal ratio of 90% or more (almost completely withered)) | 5 (Herbicidal ratio of 90% or more (almost completely withered)) | 5 (Herbicidal ratio of 90% or more (almost completely withered)) | 5 (Herbicidal ratio of 90% or more (almost completely withered)) | 5 (Herbicidal ratio of 90% or more (almost completely withered)) | 5 (Herbicidal ratio of 90% or more (almost completely withered)) | 5 (Herbicidal ratio of 90% or more (almost completely withered)) | 5 (Herbicidal ratio of 90% or more (almost completely withered)) | 5 (Herbicidal ratio of 90% or more (almost completely withered)) | 5 (Herbicidal ratio of 90% or more (almost completely withered)) | 4 (Herbicidal ratio of 70% or more and less than 90%) | 5 (Herbicidal ratio of 90% or more (almost completely withered)) | 5 (Herbicidal ratio of 90% or more (almost completely withered)) | 5 (Herbicidal ratio of 90% or more (almost completely withered)) | 5 (Herbicidal ratio of 90% or more (almost completely withered)) | 5 (Herbicidal ratio of 90% or more (almost completely withered)) | 5 (Herbicidal ratio of 90% or more (almost completely withered)) | 5 (Herbicidal ratio of 90% or more (almost completely withered)) | 5 (Herbicidal ratio of 90% or more (almost completely withered)) | 5 (Herbicidal ratio of 90% or more (almost completely withered)) | L (Apera spica-venti.) herbicidal effect grade (Apera spica-venti.): 5 (Herbicidal ratio of 90% or more (almost completely withered)); N (Amaranthus retroflexus) herbicidal effect grade (Amaranthus retroflexus): 5 (Herbicidal ratio of 90% or more (almost completely withered)); M (Abutilon theophrasti) herbicidal effect grade (Abutilon theophrasti): 5 (Herbicidal ratio of 90% or more (almost completely withered)) |
| CC(C)[S+]([O-])c1nnc2c(C(=O)Nc3nnnn3C)ccc(C(F)(F)F)n12 (stereo not drawn) [2-032] | 5 (Herbicidal ratio of 90% or more (almost completely withered)) | 5 (Herbicidal ratio of 90% or more (almost completely withered)) | 5 (Herbicidal ratio of 90% or more (almost completely withered)) | 5 (Herbicidal ratio of 90% or more (almost completely withered)) | 5 (Herbicidal ratio of 90% or more (almost completely withered)) | 5 (Herbicidal ratio of 90% or more (almost completely withered)) | 5 (Herbicidal ratio of 90% or more (almost completely withered)) | 5 (Herbicidal ratio of 90% or more (almost completely withered)) | 5 (Herbicidal ratio of 90% or more (almost completely withered)) | 5 (Herbicidal ratio of 90% or more (almost completely withered)) | 3 (Herbicidal ratio of 40% or more and less than 70%) | 5 (Herbicidal ratio of 90% or more (almost completely withered)) | 5 (Herbicidal ratio of 90% or more (almost completely withered)) | 5 (Herbicidal ratio of 90% or more (almost completely withered)) | 5 (Herbicidal ratio of 90% or more (almost completely withered)) | 5 (Herbicidal ratio of 90% or more (almost completely withered)) | 4 (Herbicidal ratio of 70% or more and less than 90%) | 5 (Herbicidal ratio of 90% or more (almost completely withered)) | 5 (Herbicidal ratio of 90% or more (almost completely withered)) | 5 (Herbicidal ratio of 90% or more (almost completely withered)) | L (Apera spica-venti.) herbicidal effect grade (Apera spica-venti.): 5 (Herbicidal ratio of 90% or more (almost completely withered)); N (Amaranthus retroflexus) herbicidal effect grade (Amaranthus retroflexus): 5 (Herbicidal ratio of 90% or more (almost completely withered)); M (Abutilon theophrasti) herbicidal effect grade (Abutilon theophrasti): 5 (Herbicidal ratio of 90% or more (almost completely withered)) |
